The supplement of paper PMC11628255, “Interference of metal ions on the bioluminescent signal of firefly, Renilla, and NanoLuc luciferases in high-throughput screening assays” (Frontiers in Chemistry, 2024)
± gives the standard deviation of the averaged measurements.

Tests used:
Assay in all cases: normalised percent inhibition of luminescence (vs positive and negative controls); higher = stronger inhibition
[1] = tested on: Renilla luciferase (RLuc)
Method: (§1)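 Concentration-response (>=11 concentrations) of metal salts on purified FLuc, NLuc or RLuc luminescence in screening (SC) or 100 mM HEPES (H) buffer; salt pre-incubated with enzyme 10 min at RT, read 10 min after substrate. Normalised percent inhibition vs plate positive (PTC-124, isradipine, BTS) and DMSO negative controls; triplicate wells.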

[2] = tested on: NanoLuc luciferase (NLuc)
Method: as §1

[3] = tested on: firefly luciferase (FLuc)
Method: as §1

O=[N+]([O-])[O-].[Ag+] [silver nitrate]
normalised percent inhibition [%]
Conditions | [1] | [2] | [3]
metal salt concentration 1.56 nM, screening conditions buffer | – | – | -3.5 ± 6
metal salt concentration 3.13 nM, screening conditions buffer | – | – | 8.07 ± 5.3
metal salt concentration 6.25 nM, screening conditions buffer | – | – | -11.6 ± 7.4
metal salt concentration 12.5 nM, screening conditions buffer | – | – | 2.67 ± 4.2
metal salt concentration 25 nM, screening conditions buffer | – | – | -5.14 ± 3.2
metal salt concentration 50 nM, screening conditions buffer | – | – | 1.37 ± 6.6
metal salt concentration 0.0001 mM, 100 mM HEPES buffer | 2.89 ± 12 | 1.65 ± 1.5 | 98 ± 2.2
metal salt concentration 0.0001 mM, screening conditions buffer | – | – | 0.486 ± 5.2
metal salt concentration 0.00025 mM, 100 mM HEPES buffer | -2.96 ± 23 | -1.44 ± 2.1 | 100.3 ± 0.19
metal salt concentration 0.00025 mM, screening conditions buffer | – | – | 54.3 ± 6.3
metal salt concentration 0.0005 mM, 100 mM HEPES buffer | -1.85 ± 16 | -1.42 ± 4.4 | 99.84 ± 0.56
metal salt concentration 0.0005 mM, screening conditions buffer | – | – | 100.1 ± 0.16
metal salt concentration 0.001 mM, 100 mM HEPES buffer | -11.8 ± 14 | 2.97 ± 6.6 | 100.3 ± 0.19
metal salt concentration 0.001 mM, screening conditions buffer | – | – | 100.19 ± 0.055
metal salt concentration 0.002 mM, screening conditions buffer | 10.7 ± 8.6 | 20.8 ± 3.6 | 100.6 ± 0.14
metal salt concentration 0.005 mM, screening conditions buffer | 8.28 ± 9.9 | 80.1 ± 3.5 | 100.7 ± 0.58
metal salt concentration 0.01 mM, 100 mM HEPES buffer | -3.09 ± 29 | – | –
metal salt concentration 0.01 mM, screening conditions buffer | 13 ± 3.1 | 88 ± 46 | 100.4 ± 0.49
metal salt concentration 0.02 mM, 100 mM HEPES buffer | -4.38 ± 18 | – | –
metal salt concentration 0.02 mM, screening conditions buffer | 14.2 ± 12 | 107 ± 28 | 100.7 ± 0.22
metal salt concentration 0.025 mM, 100 mM HEPES buffer | 84.8 ± 8.2 | 99.59 ± 0.3 | 100.4 ± 0.49
metal salt concentration 0.04 mM, 100 mM HEPES buffer | 47.3 ± 12 | – | –
metal salt concentration 0.05 mM, 100 mM HEPES buffer | 104 ± 3.7 | 51.4 ± 54 | 100.3 ± 0.68
metal salt concentration 0.05 mM, screening conditions buffer | 38.8 ± 7.9 | 118 ± 17 | 99.8 ± 1.4
metal salt concentration 0.1 mM, 100 mM HEPES buffer | 107 ± 1.2 | 100.8 ± 0.22 | 100.6 ± 0.19
metal salt concentration 0.1 mM, screening conditions buffer | 81.2 ± 3.3 | 119 ± 17 | –
metal salt concentration 0.2 mM, screening conditions buffer | 101 ± 3.2 | 133.6 ± 0.46 | –
metal salt concentration 0.5 mM, 100 mM HEPES buffer | 106 ± 1.4 | 101.7 ± 0.27 | 100 ± 0.68
metal salt concentration 0.5 mM, screening conditions buffer | 105.9 ± 0.6 | 119 ± 16 | –
metal salt concentration 1 mM, 100 mM HEPES buffer | 106 ± 1.3 | 101.7 ± 0.68 | 99.8 ± 1.1
metal salt concentration 1 mM, screening conditions buffer | 105.9 ± 0.36 | 120 ± 16 | –
metal salt concentration 2.5 mM, 100 mM HEPES buffer | 106.7 ± 0.43 | 101.97 ± 0.092 | 100.4 ± 0.49
metal salt concentration 2.5 mM, screening conditions buffer | 106.2 ± 0.36 | 134.8 ± 0.48 | –
metal salt concentration 5 mM, 100 mM HEPES buffer | 106 ± 1.5 | 102 ± 0.14 | 100.5 ± 0.56
metal salt concentration 5 mM, screening conditions buffer | 106.1 ± 0.41 | 135.3 ± 0.097 | –

[Cl][Fe]([Cl])[Cl] [iron(III) chloride]
normalised percent inhibition [%]
Conditions | [1] | [2] | [3]
metal salt concentration 0.0001 mM, 100 mM HEPES buffer | -21.7 ± 4.9 | -1.25 ± 4.4 | -26 ± 15
metal salt concentration 0.00025 mM, 100 mM HEPES buffer | -24.6 ± 22 | -4.27 ± 8.5 | -29.2 ± 20
metal salt concentration 0.0005 mM, 100 mM HEPES buffer | -24.2 ± 25 | -1.65 ± 4.2 | -34.9 ± 20
metal salt concentration 0.001 mM, 100 mM HEPES buffer | -15.5 ± 20 | -0.138 ± 3.3 | -41.7 ± 17
metal salt concentration 0.002 mM, screening conditions buffer | 0.819 ± 2.5 | 0.19 ± 3.9 | 14.7 ± 1.8
metal salt concentration 0.005 mM, screening conditions buffer | -4.9 ± 5 | 4.14 ± 6.8 | 55.7 ± 4.7
metal salt concentration 0.01 mM, screening conditions buffer | -11.6 ± 8.6 | 8.93 ± 3 | 85.4 ± 3.2
metal salt concentration 0.02 mM, screening conditions buffer | 0.263 ± 14 | 14.5 ± 4.1 | 95.8 ± 6.3
metal salt concentration 0.025 mM, 100 mM HEPES buffer | -1.73 ± 19 | 5.06 ± 5.1 | 99.41 ± 0.94
metal salt concentration 0.05 mM, 100 mM HEPES buffer | 36.7 ± 12 | 15 ± 1.8 | 99.62 ± 0.49
metal salt concentration 0.05 mM, screening conditions buffer | -5.21 ± 2 | -3.71 ± 1.9 | 82.4 ± 4.2
metal salt concentration 0.1 mM, 100 mM HEPES buffer | 61.1 ± 4.2 | 35.6 ± 2.7 | 100.6 ± 0.19
metal salt concentration 0.1 mM, screening conditions buffer | 23.9 ± 8.6 | 28.5 ± 5.2 | 71.9 ± 8.1
metal salt concentration 0.2 mM, screening conditions buffer | 32.6 ± 8.1 | 31.9 ± 1.6 | 95.4 ± 4.9
metal salt concentration 0.5 mM, 100 mM HEPES buffer | 103 ± 1.9 | 99.75 ± 0.79 | 100.3 ± 0.49
metal salt concentration 0.5 mM, screening conditions buffer | 48.5 ± 1.6 | 52.9 ± 0.99 | 100.2 ± 0.3
metal salt concentration 1 mM, 100 mM HEPES buffer | 103 ± 2.3 | 101.4 ± 0.23 | 99.6 ± 1.3
metal salt concentration 1 mM, screening conditions buffer | 75.5 ± 7.8 | 89.6 ± 7.1 | 100.6 ± 0.43
metal salt concentration 2.5 mM, 100 mM HEPES buffer | 105.7 ± 0.74 | 101.8 ± 0.23 | 100.2 ± 0.32
metal salt concentration 2.5 mM, screening conditions buffer | 94.4 ± 4.9 | 137.4 ± 0.29 | 100.6 ± 0.38
metal salt concentration 5 mM, 100 mM HEPES buffer | 106.2 ± 0.43 | 102.12 ± 0.051 | 99.84 ± 0.32
metal salt concentration 5 mM, screening conditions buffer | 105 ± 1.1 | 137.49 ± 0.063 | 100.5 ± 0.3

[Cl][Sn][Cl] [tin(II) chloride]
normalised percent inhibition [%]
Conditions | [1] | [2] | [3]
metal salt concentration 0.0001 mM, 100 mM HEPES buffer | -43.6 ± 17 | -1.04 ± 6.1 | -37.6 ± 15
metal salt concentration 0.00025 mM, 100 mM HEPES buffer | -34 ± 13 | -2.95 ± 2.7 | -36.8 ± 6.8
metal salt concentration 0.0005 mM, 100 mM HEPES buffer | -29.8 ± 5.5 | -1.03 ± 1.3 | -25.8 ± 14
metal salt concentration 0.001 mM, 100 mM HEPES buffer | -28.6 ± 18 | -2.16 ± 1.9 | -45.1 ± 15
metal salt concentration 0.002 mM, screening conditions buffer | 2.49 ± 5.6 | 1.6 ± 4.3 | -6.84 ± 5.6
metal salt concentration 0.005 mM, screening conditions buffer | -3.55 ± 14 | 4.64 ± 7.8 | -10.8 ± 7.7
metal salt concentration 0.01 mM, screening conditions buffer | 13.4 ± 4.1 | 3.42 ± 6.3 | 6.44 ± 2.8
metal salt concentration 0.02 mM, screening conditions buffer | -6.49 ± 5.1 | -0.105 ± 7.6 | 1.32 ± 6
metal salt concentration 0.025 mM, 100 mM HEPES buffer | -15.8 ± 19 | -3.24 ± 3.1 | -26.1 ± 9.4
metal salt concentration 0.05 mM, 100 mM HEPES buffer | -15 ± 8.5 | 6.37 ± 5.1 | -13.9 ± 8.4
metal salt concentration 0.05 mM, screening conditions buffer | -5.21 ± 12 | -1.81 ± 0.79 | 19.1 ± 12
metal salt concentration 0.1 mM, 100 mM HEPES buffer | -35 ± 10 | -5.15 ± 2.1 | -9.51 ± 17
metal salt concentration 0.1 mM, screening conditions buffer | -1.32 ± 8.7 | 1.62 ± 2.5 | 56.5 ± 6.6
metal salt concentration 0.2 mM, screening conditions buffer | -3.23 ± 5 | 6.52 ± 2.1 | 99.33 ± 0.51
metal salt concentration 0.5 mM, 100 mM HEPES buffer | -38.9 ± 24 | -1.5 ± 2.9 | 11.7 ± 4.4
metal salt concentration 0.5 mM, screening conditions buffer | -6.09 ± 2.5 | 8.42 ± 5.9 | 100.6 ± 0.52
metal salt concentration 1 mM, 100 mM HEPES buffer | -53 ± 25 | -2.37 ± 3.8 | 37.6 ± 7.7
metal salt concentration 1 mM, screening conditions buffer | -5.29 ± 9 | 20.2 ± 2.5 | 100.2 ± 0.65
metal salt concentration 2.5 mM, 100 mM HEPES buffer | -45.3 ± 22 | -3.02 ± 4.8 | 63.9 ± 6.3
metal salt concentration 2.5 mM, screening conditions buffer | -6.8 ± 10 | 93.83 ± 0.43 | 100.4 ± 0.65
metal salt concentration 5 mM, 100 mM HEPES buffer | 79.9 ± 17 | 11.3 ± 8.9 | 100.7 ± 0.19
metal salt concentration 5 mM, screening conditions buffer | 103 ± 2.7 | 137.11 ± 0.064 | 100.5 ± 0.69
